According to patent US10039729B2, “Use of kukoamine A and kukoamine B” (Tianjin Chase Sun Pharmaceutical Co., Ltd., priority 2010, dated 2018):

How the values were obtained:
RAW264.7 cells = test: Release of TNF-α and IL-6 in RAW264.7 cells induced by LPS and CpG DNA (ELISA); type: cell-based, murine; details: for release of TNF-α induced by CpG DNA / release of TNF-α induced by LPS: 0, 50 and 100 ng/ml, 4 h, p<0.01
Procedure: 6.1 Methods: RAW264.7 cells were diluted to 1×10^6/ml in DMEM supplemented with 10% (v/v) NCS, added into 96-well plates (200 μl per well), and cultured at 37° C. in a 5% CO2 humidified incubator for 4 h until cells adhere to the wall; culture medium were replaced with fresh culture medium, added with KA and KB (final concentrations of 0, 50 and 100 ng/ml), and added with LPS (final concentration of 100 ng/ml) and CpG DNA (final concentration of 10 μg/ml); at the same time, medium group without any reagent was established; subsequently, RAW264.7 cells were incubated for 4 h; and the supernatant was collected for further detection; detection of the TNF-α concentration was performed according to the manufacturer's instructions of ELISA kit. Result was expressed by means of mean±standard deviation.
12.1 Methods: According to the method in embodiment 6, KB was dissolved in DMEM supplemented with 10% (v/v) NCS, subsequently transferred into Culture medium of RAW264.7 cells to achieved final concentrations of 100 and 200 μM, added with LPS (final concentration of 100 ng/ml) and CpG DNA (final concentration of 10 μg/ml), incubated for 24 h, and then collected supernatant; the concentration of TNF-α and IL-6 of each group was detected according to the manufacturer's instructions of ELISA kit; result was expressed by means of mean±standard deviation.
13.1 Methods: According to the method in embodiment 6, KB and PMB were separately dissolved in DMEM supplemented with 10% (v/v) NCS, subsequently transferred into culture medium of RAW264.7 cells to achieved final concentrations of 50, 100 and 200 μM, and then added with LPS (final concentration of 100 ng/ml) and CpG DNA (final concentration of 10 μg/ml); RAW264.7 cells continued to be incubated; the supernatant were collected four hours later for TNF-α detection; the supernatant were collected 12 hours later for IL-6 detection; the concentration of TNF-α and IL-6 of each group was detected according to the manufacturer's instructions of ELISA kit; result was expressed by means of mean±standard deviation.
17.1 Methods: RAW264.7 cells was diluted to 1×10^6/ml in DMEM supplemented with 10% (v/v) NCS, transferred into 96-well plates (200 μl per well) and cultured at 37° C. in a 5% CO2 humidified incubator for 4 h.
(1) Observation of dose-dependent effects: For the purpose of experiment a medium group and a KB treatment group were established; each group included three repeated wells; medium group was added with no reagent; KB treatment group was added with KB (final concentrations of 12.5, 25, 50, 100 and 200 μM) in each well, and subsequently added with LPS (final concentration of 100 ng/ml) or CpG DNA (final concentration of 10 μg/ml); cells were cultured at 37° C. in a 5% CO2 humidified incubator for 12 h; the supernatant was collected for further detection; operations were performed according to the manufacturer's instructions of ELISA kit, and the result was expressed by means of mean±standard deviation.
(2) Observation of time-dependent effects: For the purpose of experiment a medium group, a stimulation group and a KB treatment group were established; each group contained three repeated wells; medium group was added with no reagent; stimulation group was added with LPS and CpG DNA; KB treatment group was added with LPS and CpG DNA, in the meantime added with KB (final concentration of 200 μM); cells continued to be cultured at 37° C. in a 5% CO2 humidified incubator; the supernatant at time point of 0, 2, 4, 8, 12 and 24 h after stimulation was separately collected for further detection; detection of TNF-α concentration was performed according to the manufacturer's instructions of ELISA kit, and the result was expressed by means of mean±standard deviation.
18.1 Methods: RAW264.7 cells were diluted to 1×10^6/ml in DMEM supplemented with 10% (v/v) NCS, transferred into 96-well plates (200 μl per well) and cultured at 37° C. in a 5% CO2 humidified incubator for 4 h. […]

[1] = Neutralization of LPS in vitro (TAL / kinetic turbidimetric limulus test); type: biochemical; details: for neutralizing activity with LPS: 1, 2 and 4 μg/ml with equal volume of LPS (2.0 ng/ml), 30 min, p<0.05 or p<0.01, dose-dependent; for IC50: LPS 2 ng/ml, 0.5-128 μM, read-out: Half inhibitory concentration (IC50) on LPS
Procedure: 2.3.1 Methods: CL-4b was dissolved into LPS-free water to make 8 μg/ml solution, and incubated with equal volume of LPS (1 ng/mL) at 37° C. for 30 min. Subsequently, 100 μl mixed solution of CL-4b and LPS was added with equal volume of the quantitative TAL reagents dissolved in LPS-free water, gently shaked to mix the contents, and reacted at 37° C. for 60 min in kinetic tube reader. The agglutination of TAL reagent induced by the existence of non-neutralized LPS was measured. The mixture of LPS and equal volume of LPS-free water act as positive control. Each group contained three repeated tubes. The result was expressed in EU/ml, the endotoxin unit of LPS. Operation was performed according to the manufacturer's instructions of EDS-99 Bacterial Endotoxin Detecting system.
4.1 Methods: KA and KB (1, 2 and 4 μg/ml) were separately mixed with equal volume of LPS (2.0 ng/ml) and pre-incubated at 37 for 30 min; LPS control group was added with equal volume of nonpyrogenic water; LPS value was detected by kinetic turbidimetric limulus test after incubation; detection of each concentration was repeated three times; LPS content was expressed by means of mean±standard deviation; operation was performed according to the manufacturer's instructions of EDS-99 Bacterial Endotoxin Detecting system.
11.1 Methods: KB and PMB were separately diluted with LPS-free water to make solutions of 0.5, 1, 2, 4, 8, 16, 32, 64 and 128 μM; according to the methods in embodiment 4, above solutions were separately mixed with equal volume of LPS (2 ng/ml), and neutralizing activity was assayed.

[2] = CpG DNA 10 μg/ml, dose-dependent
[3] = 50, 100 and 200 μM, CpG DNA 10 μg/ml, TNF-α at 4 h, IL-6 at 12 h
[4] = 50, 100 and 200 μM, LPS 100 ng/ml, TNF-α at 4 h, IL-6 at 12 h

Row | Compound | release of TNF-α induced by CpG DNA (RAW264.7 cells; [2]) | release of TNF-α induced by LPS (RAW264.7 cells; LPS 100 ng/ml, dose-dependent) | neutralizing activity with LPS [1] | release of TNF-α and IL-6 induced by CpG DNA (RAW264.7 cells; [3]) | release of TNF-α and IL-6 induced by LPS (RAW264.7 cells; [4]) | release of TNF-α and IL-6 induced by CpG DNA (RAW264.7 cells; 100 and 200 μM, CpG DNA 10 μg/ml, 24 h) | release of TNF-α and IL-6 induced by LPS (RAW264.7 cells; 100 and 200 μM, LPS 100 ng/ml, 24 h) | difference of RAW264.7 cells activation (TNF-α release) vs CpG DNA group (RAW264.7 cells; KB 12.5 μM, CpG DNA 10 μg/ml, 12 h, p>0.05) | difference of RAW264.7 cells activation (TNF-α release) vs LPS group (RAW264.7 cells; KB 12.5 μM, LPS 100 ng/ml, 12 h, p>0.05) | inhibitory activity on TNF-α release induced by CpG DNA (RAW264.7 cells; KB 25 μM and above, CpG DNA 10 μg/ml, 12 h, p<0.05 or p<0.01, dose-dependent) | inhibitory activity on TNF-α release induced by LPS (RAW264.7 cells; KB 25 μM and above, LPS 100 ng/ml, 12 h, p<0.05 or p<0.01) | TNF-α release, KB added before vs at the time of stimulation (RAW264.7 cells; KB 200 μM added 40 or 20 min before vs at 0 min, LPS 200 ng/ml or CpG DNA 20 μg/ml) | TNF-α levels in supernatant at various time points, CpG DNA (RAW264.7 cells; KB 200 μM, CpG DNA 10 μg/ml, 0, 2, 4, 8, 12 and 24 h) | release of TNF-α and IL-6 induced by LPS and CpG DNA (RAW264.7 cells; KB 200 μM, LPS 100 ng/ml, CpG DNA 10 μg/ml, selectivity panel) | TNF-α levels in supernatant at various time points, LPS (RAW264.7 cells; KB 200 μM, LPS 100 ng/ml, 0, 2, 4, 8, 12 and 24 h) | antagonistic effect on other irritant (Pam3CSK4, Poly I:C, TNF-α, IL-1β) (RAW264.7 cells; KB 200 μM, Pam3CSK4 10 μg/ml, Poly I:C 20 μg/ml, TNF-α 50 ng/ml, IL-1β 50 ng/ml) | release of TNF-α induced by LPS and CpG DNA under serum-free conditions (RAW264.7 cells; KB 50, 100 and 200 μM, serum-free DMEM, 12 h, dose-dependant) | inhibition on TNF-α release induced by LPS and CpG DNA, KB preincubated with stimulus (RAW264.7 cells; KB preincubated with LPS or CpG DNA for 20 min or 40 min before loading, 12 h) | IC50 [1] [µM]
1 | O=C(CCc1ccc(O)c(O)c1)NCCCNCCCCNCCCNC(=O)CCc1ccc(O)c(O)c1 [KA, Kukoamine A] | inhibit the release of TNF-α | inhibit the release of TNF-α | significant neutralizing activity | – | – | – | – | – | – | – | – | – | – | – | – | – | – | – | –
2 | NCCCN(CCCCNCCCNC(=O)CCc1ccc(O)c(O)c1)C(=O)CCc1ccc(O)c(O)c1 [KB, Kukoamine B] | inhibit the release of TNF-α | inhibit the release of TNF-α | significant neutralizing activity | inhibit the release of TNF-α and IL-6 | inhibit the release of TNF-α and IL-6 | inhibit the release of TNF-α and IL-6 | inhibit the release of TNF-α and IL-6 | no statistic significance | no statistic significance | significantly increased | significantly increased | no significant difference | all decreased | can only inhibit the release of TNF-α and IL-6 induced by LPS and CpG DNA | all decreased | no antagonistic effect on other irritant | still inhibit the release of TNF-α | significantly enhanced | 14.9
3 | polymyxin B [PMB, reference compound] | – | – | – | can only inhibit the release of TNF-α and IL-6 induced by LPS | inhibit the release of TNF-α and IL-6 | – | – | – | – | – | – | – | – | – | – | – | – | – | 4.8
